Experimental data reported in patent publication US5180739A, “Use of 3-oxygermylpropionic acid to treat and prevent diabetes-dependent type of autoimmune diseases” (Sanwa Kagaku Kenkyusho Co., Ltd., priority 1990, dated 1993).

What was measured:
[1] = test system: Langerhans' islands; test: Degree of cellular infiltration in the Langerhans' islands of mice with STZ-induced diabetes; format: in vivo, AKR/J1 mouse; conditions: for Degrees of pancreatitis, 0 (0%) / Degrees of pancreatitis, I (0-25%) / Degrees of pancreatitis, II (25-50%) / Degrees of pancreatitis, III (50-100%) / Incidence of pancreatitis (I-III): STZ + a, at 21 days; for Incidence of pancreatitis (I-III): STZ + buffer 68
Description: (§1) Continuous 5-day administration of streptozocin (STZ) to an AKR/J1 line mice, that ia an inbred mice with a spontaneous symptom of leukemia, can cause it to take a disease similar to human Type I diabetes (dependent upon insulin). Tests were performed for the purpose of going into influence Compound a and Composition b have on such a mice with streptozosin-induced diabetes.
Similar mice were caused to develop STZ-induced diabetes in a similar manner as described in Test Example 1.
A solution of Compound a in a similar phosphate buffer with pH 7.4 as used in Test Example 1 was continuously administrated at a rejection rate of 5% to the abdominal cavities according to similar dosing schemes as applied in Test Examples 1, 2 and 3.
At 21 days from STZ dosing, the degree of cellular infiltration in the Langerhans' islands were assayed under an optical microscope.

[2] = test system: SD rats; test: Acute toxicity test, oral administration (LD50), rats; format: in vivo
Description: (§2) Acute and subacute (chronic) toxicity tests were performed using SD rats and mice which has received 3-oxygermylpropionic acid represented by Formula I (hereinafter referred to Compound a) and the above-mentioned primary composition (hereinafter called Composition b).
(§3) For experimentation, a group of 8-10 animals were used.
(§4) Oral administration (no significant
(§5) difference between Compound -a and […]

[3] = Japanese Patent Kokai Publication No. Sho 61-161123; cited from earlier work
[4] = test system: SD rats and mice; test: Acute toxicity test, comparison and general symptoms; format: in vivo
Description: as §2, §3

[5] = test system: mice with streptozosin-induced diabetes; test: Concentration of glucose in the blood of mice with STZ-induced diabetes; format: in vivo, AKR/J1 mouse; conditions: rejection rate of 5%
Description: as §1
(§6) Streptozocin (STZ) was continuously administrated to the abdominal cavity of a (masculine) mouse belonging to AKR/J1 at a dose of 40 mg/kg for 5 days to induce an increase in the concentration of glucose in the blood and a decrease in the amount of insulin in the pancreas.
(§7) With Compound a dissolved in a phosphate buffer solution with pH 7.4, the concentration of glucose in the blood was measured at 7 days, 14 days and 21 days from STZ dosing, using a GOD-PAP kit (made by Boehringer Mannheim) based on the glucose oxidase process for measurement. In addition, the amount of insulin in the pancreas, extracted by the acid-ethanol process, was assayed with a radio immuno assay kit (made by Pharmacia Aktiebolag) based on an immunoassay process making use of a competitive reaction by ^125 I-labeled insulin (see Soeldner, JS & Slone, D, "Diabetes", Vol. 14, pp. 771-779, 1985).
(§8) A similar mouse was caused to develop STZ-induced diabetes in a similar manner as referred to in Test Example 1.
(§9) A solution of Compound a in a phosphate buffer with pH 7.4 was continuously administered to the abdominal cavity of the animal at 5 mg/kg over 7 days from STZ dosing.
(§10) At 7 days, 14 days and 21 days from STZ dosing, the concentration of glucose in the blood and the amount of insulin in the pancreas were measured in similar manners as mentioned in Test Example 1.
(§11) A solution of Compound a in a phosphate buffer with pH 7.4 was continuously administered to the abdominal cavity of the animal at 5 mg/kg 15 days from the 7th day after STZ dosing.

[6] = test system: mice; test: Acute toxicity test, oral administration (LD50), mice; format: in vivo
Description: as §2, §3, §4, §5

[7] = test system: SD male rats; test: Subacute toxicity test, oral, over 3 months; format: in vivo
Description: as §2, §3
Over 3 months, Compound a and Composition b were orally administered to two groups of SD male rats at doses of 256, 380, 640, 1300, 1600 and 4000 mg/kg/day to determined which dose to have no toxic influence at all and which dose to induce positive poisoning.

[8] = test system: mice with streptozosin-induced diabetes; test: Amount of insulin in the pancreas of mice with STZ-induced diabetes; format: in vivo, AKR/J1 mouse; conditions: rejection rate of 5%
Description: as §1, §6, §7, §8, §9, §10, §11

**Q.** Which “Degrees of pancreatitis, 0 (0%)” value ([1]; 1-7 days) does the source give for 3-oxygermylpropionic acid [Compound a] here?
**A.** Its value is 70%.

**Q.** And the “Degrees of pancreatitis, I (0-25%)” value ([1]; 1-7 days)?
**A.** The value was 23%.

**Q.** And the “Degrees of pancreatitis, II (25-50%)” value ([1]; 1-7 days)?
**A.** The value was 4%.

**Q.** What about the “Degrees of pancreatitis, III (50-100%)” value ([1]; 1-7 days) of the same substance?
**A.** Its value is 3%.

**Q.** What about the “Incidence of pancreatitis (I-III)” value ([1]; 1-7 days) of the same substance?
**A.** Its value is 30%.

**Q.** What about the “Degrees of pancreatitis, 0 (0%)” value ([1]; 1-21 days (first line)) of the same substance?
**A.** The value was 70%.

**Q.** And the “Degrees of pancreatitis, I (0-25%)” value ([1]; 1-21 days (first line))?
**A.** Its value is 25%.

**Q.** And the “Degrees of pancreatitis, II (25-50%)” value ([1]; 1-21 days (first line))?
**A.** Its value is 4%.

**Q.** What about the “Degrees of pancreatitis, III (50-100%)” value ([1]; 1-21 days (first line)) of the same substance?
**A.** Its value is 1%.

**Q.** What about the “Incidence of pancreatitis (I-III)” value ([1]; 1-21 days (first line)) of the same substance?
**A.** Its value is 30%.

**Q.** What about the “Degrees of pancreatitis, 0 (0%)” value ([1]; third line, 1-21 days) of the same substance?
**A.** Its value is 68%.

**Q.** And the “Degrees of pancreatitis, I (0-25%)” value ([1]; third line, 1-21 days)?
**A.** The value was 30%.

**Q.** And the “Degrees of pancreatitis, II (25-50%)” value ([1]; third line, 1-21 days)?
**A.** The value was 1%.

**Q.** What about the “Degrees of pancreatitis, III (50-100%)” value ([1]; third line, 1-21 days) of the same substance?
**A.** The value was 1%.

**Q.** And the “Incidence of pancreatitis (I-III)” value ([1]; third line, 1-21 days)?
**A.** The value was 32%.

**Q.** What about the “infiltrated cells in the Langerhans' islands (increased by STZ dosing)” value ([1]; Test Example 4, 21 days from dosing) of the same substance?
**A.** The value was “successfully decreased the infiltrated cells”.

**Q.** What about the LD50 ([2]; female) of the same substance?
**A.** Its LD50 is ≥ 7,050 mg/kg.

**Q.** And the LD50 ([2]; male)?
**A.** Its LD50 is ≥ 7,700 mg/kg.

**Q.** And the immunity-accommodative actions [3]?
**A.** The immunity-accommodative actions was “immunity-accommodative actions”.

**Q.** And the general symptoms ([4]; in vivo)?
**A.** The general symptoms was “general symptoms of appeasement, diarrhea, vomiting and typhlectasis”.

**Q.** What about the “difference in acute toxicity between Compound a and Composition b” value ([4]; oral, mice and rats) of the same substance?
**A.** Its value is “no significant difference”.

**Q.** And the “concentration of glucose in the blood (increased by STZ)” value (“concentration … (increased by STZ)” below) ([5]; Test Example 1, 21 days from dosing, FIG. 1(a))?
**A.** The value was “significant improvements”.

**Q.** And the “concentration … (increased by STZ)” value ([5]; Test Example 2, 5 mg/kg to the abdominal cavity over 7 days from STZ dosing, 21 days from dosing, FIG. 2(a))?
**A.** The value was “significant improvements”.

**Q.** What about the “concentration … (increased by STZ)” value ([5]; Test Example 3, 5 mg/kg to the abdominal cavity 15 days from the 7th day after STZ dosing, 21 days from dosing, FIG. 3(a)) of the same substance?
**A.** Its value is “significant improvements”.

**Q.** What about the LD50 ([6]; female) of the same substance?
**A.** The LD50 was ≥ 5,800 mg/kg.

**Q.** And the LD50 ([6]; male)?
**A.** The LD50 was ≥ 5,600 mg/kg.

**Q.** What about the “dose inducing positive poisoning” value ([7]; SD male rats, oral, 3 months, daily) of the same substance?
**A.** Its value is 1600 mg/kg.

**Q.** And the “reversibility of toxic symptoms without drug treatment” value ([7]; rat, in vivo)?
**A.** Its value is “Toxic symptoms then disappeared”.

**Q.** And the “dose with no toxic influence whatsoever” value ([7]; rat, in vivo, po, 131400 min)?
**A.** The value was 256 mg/kg.

**Q.** What about the “amount of insulin in the pancreas (decreased by STZ)” value (from here on “amount … (decreased by STZ)”) ([8]; Test Example 1, 21 days from dosing, FIG. 1(b)) of the same substance?
**A.** Its value is “significant improvements”.

**Q.** And the “amount … (decreased by STZ)” value ([8]; Test Example 2, 5 mg/kg to the abdominal cavity over 7 days from STZ dosing, 21 days from dosing, FIG. 2(b))?
**A.** Its value is “significant improvements”.

**Q.** And the “amount … (decreased by STZ)” value ([8]; Test Example 3, 5 mg/kg to the abdominal cavity 15 days from the 7th day after STZ dosing, 21 days from dosing)?
**A.** The value was “significant improvements”.
